Source: paper PMC10999558, “Analyzing resistome in soil and Human gut: a study on the characterization and risk evaluation of antimicrobial peptide resistance” (Frontiers in Microbiology, 2024)

Legend:
Format in all cases: cell-based, Escherichia coli
Conditions in all cases: MHB, 37°C, 24 h, triplicate
E. coli JM109 = assay: MIC, broth microdilution, retransformed E. coli JM109
Procedure: (§1) Escherichia coli DH5α, E. coli BL21(DE3), and E. coli JM109 were utilized in this study.
(§2) The MICs were determined using the broth microdilution method in 96-well microtiter plates ([Wiegand et al., 2008]). In brief, a 1:100 dilution of the mid-exponential phase bacterial culture (OD600 = 0.5), consisting of 5 μL (1 × 10^5 CFU/mL), was introduced into polypropylene 96-well plates. These plates contained a two-fold dilution series of AMP in a total volume of 100 μL MHB per well. The incubation of the plates occurred at 37°C in a humidity chamber. The MIC was identified as the lowest concentration that hindered visible bacterial growth after 24 h of incubation. Each experiment was conducted in triplicate.
(§3) Before washing down the colonies, we randomly selected two clones from each plate containing distinct AMP. Colony PCRs were conducted using M13 primer pairs to validate the presence of inserts and determine their sizes. The selected colonies were then subjected to sequencing. The specific details are provided in Supplementary Table S2. Following that, plasmids were isolated using the Plasmid Midiprep Kit (Zomanbio, ZP103) following the manufacturer’s guidelines. After the plasmids were successfully reintroduced into E. coli JM109 and E. coli BL 21(DE3), the MICs of the transformed strains against the AMP used for selection were tested. This testing process was carried out in triplicate.
(§4) Following validation, the colonies displaying resistance underwent additional testing via MIC assessments for the remaining four AMPs that were not employed during the selection process. This experimental procedure was carried out in triplicate.

E. coli DH5α = assay: MIC, broth microdilution, E. coli DH5α carrying pUC118 or resistance-conferring plasmids
Procedure: as §1, §2, §4

E. coli BL21(DE3) = assay: MIC, broth microdilution, retransformed E. coli BL21(DE3)
Procedure: as §1, §2, §3, §4

Colistin [CST]
MIC (E. coli JM109; colony pUC118-FCST1-JM109 (feces insert 1 selected against colistin)): 0.5 mg/L
MIC (E. coli JM109; colony pUC118-FCST2-JM109 (feces insert 2 selected against colistin)): 1 mg/L
MIC (E. coli JM109; colony pUC118-FGQ1-JM109 (feces insert 1 selected against melittin)): 0.5 mg/L
MIC (E. coli JM109; colony pUC118-FGQ2-JM109 (feces insert 2 selected against melittin)): 0.5 mg/L
MIC (E. coli JM109; colony pUC118-FIB1-JM109 (feces insert 1 selected against iseganan)): 0.25 mg/L
MIC (E. coli JM109; colony pUC118-FIB2-JM109 (feces insert 2 selected against iseganan)): 0.5 mg/L
MIC (E. coli JM109; colony pUC118-FPB1-JM109 (feces insert 1 selected against polymyxin B)): 1 mg/L
MIC (E. coli JM109; colony pUC118-FPB2-JM109 (feces insert 2 selected against polymyxin B)): 0.5 mg/L
MIC (E. coli JM109; colony pUC118-FSA1-JM109 (feces insert 1 selected against cathelicidin-DM)): 2 mg/L
MIC (E. coli JM109; colony pUC118-FSA2-JM109 (feces insert 2 selected against cathelicidin-DM)): 0.5 mg/L
MIC (E. coli JM109; colony pUC118-JM109 (control, no insert)): 0.25 mg/L
MIC (E. coli JM109; colony pUC118-SCST1-JM109 (soil insert 1 selected against colistin)): 0.5 mg/L
MIC (E. coli JM109; colony pUC118-SCST2-JM109 (soil insert 2 selected against colistin)): 0.5 mg/L
MIC (E. coli JM109; colony pUC118-SGQ1-JM109 (soil insert 1 selected against melittin)): 0.25 mg/L
MIC (E. coli JM109; colony pUC118-SGQ2-JM109 (soil insert 2 selected against melittin)): 0.25 mg/L
MIC (E. coli JM109; colony pUC118-SIB1-JM109 (soil insert 1 selected against iseganan)): 0.25 mg/L
MIC (E. coli JM109; colony pUC118-SIB2-JM109 (soil insert 2 selected against iseganan)): 0.25 mg/L
MIC (E. coli JM109; colony pUC118-SPB1-JM109 (soil insert 1 selected against polymyxin B)): 0.25 mg/L
MIC (E. coli JM109; colony pUC118-SPB2-JM109 (soil insert 2 selected against polymyxin B)): 0.5 mg/L
MIC (E. coli JM109; colony pUC118-SSA1-JM109 (soil insert 1 selected against cathelicidin-DM)): 0.5 mg/L
MIC (E. coli JM109; colony pUC118-SSA2-JM109 (soil insert 2 selected against cathelicidin-DM)): 0.25 mg/L
MIC (E. coli DH5α; E. coli DH5α containing pUC118 plasmids): 0.25 mg/L
MIC (E. coli DH5α; colony pUC118-DH5α (control, no insert)): 0.25 mg/L
MIC (E. coli DH5α; colony pUC118-FCST1-DH5α (feces insert 1 selected against colistin)): 0.5 mg/L
MIC (E. coli DH5α; colony pUC118-FCST2-DH5α (feces insert 2 selected against colistin)): 0.5 mg/L
MIC (E. coli DH5α; colony pUC118-FGQ1-DH5α (feces insert 1 selected against melittin)): 0.5 mg/L
MIC (E. coli DH5α; colony pUC118-FGQ2-DH5α (feces insert 2 selected against melittin)): 0.5 mg/L
MIC (E. coli DH5α; colony pUC118-FIB1-DH5α (feces insert 1 selected against iseganan)): 0.25 mg/L
MIC (E. coli DH5α; colony pUC118-FIB2-DH5α (feces insert 2 selected against iseganan)): 1 mg/L
MIC (E. coli DH5α; colony pUC118-FPB1-DH5α (feces insert 1 selected against polymyxin B)): 2 mg/L
MIC (E. coli DH5α; colony pUC118-FPB2-DH5α (feces insert 2 selected against polymyxin B)): 1 mg/L
MIC (E. coli DH5α; colony pUC118-FSA1-DH5α (feces insert 1 selected against cathelicidin-DM)): 0.5 mg/L
MIC (E. coli DH5α; colony pUC118-FSA2-DH5α (feces insert 2 selected against cathelicidin-DM)): 0.5 mg/L
MIC (E. coli DH5α; colony pUC118-SCST1-DH5α (soil insert 1 selected against colistin)): 0.5 mg/L
MIC (E. coli DH5α; colony pUC118-SCST2-DH5α (soil insert 2 selected against colistin)): 1 mg/L
MIC (E. coli DH5α; colony pUC118-SGQ1-DH5α (soil insert 1 selected against melittin)): 0.25 mg/L
MIC (E. coli DH5α; colony pUC118-SGQ2-DH5α (soil insert 2 selected against melittin)): 0.25 mg/L
MIC (E. coli DH5α; colony pUC118-SIB1-DH5α (soil insert 1 selected against iseganan)): 0.25 mg/L
MIC (E. coli DH5α; colony pUC118-SIB2-DH5α (soil insert 2 selected against iseganan)): 0.25 mg/L
MIC (E. coli DH5α; colony pUC118-SPB1-DH5α (soil insert 1 selected against polymyxin B)): 0.25 mg/L
MIC (E. coli DH5α; colony pUC118-SPB2-DH5α (soil insert 2 selected against polymyxin B)): 0.5 mg/L
MIC (E. coli DH5α; colony pUC118-SSA1-DH5α (soil insert 1 selected against cathelicidin-DM)): 0.5 mg/L
MIC (E. coli DH5α; colony pUC118-SSA2-DH5α (soil insert 2 selected against cathelicidin-DM)): 1 mg/L
MIC (E. coli BL21(DE3); colony pUC118-BL21(DE3) (control, no insert)): 1 mg/L
MIC (E. coli BL21(DE3); colony pUC118-FCST1-BL21(DE3) (feces insert 1 selected against colistin)): 2 mg/L
MIC (E. coli BL21(DE3); colony pUC118-FCST2-BL21(DE3) (feces insert 2 selected against colistin)): 2 mg/L
MIC (E. coli BL21(DE3); colony pUC118-FGQ1-BL21(DE3) (feces insert 1 selected against melittin)): 2 mg/L
MIC (E. coli BL21(DE3); colony pUC118-FGQ2- BL21(DE3) (feces insert 2 selected against melittin)): 2 mg/L
MIC (E. coli BL21(DE3); colony pUC118-FIB1-BL21(DE3) (feces insert 1 selected against iseganan)): 1 mg/L
MIC (E. coli BL21(DE3); colony pUC118-FIB2-BL21(DE3) (feces insert 2 selected against iseganan)): 2 mg/L
MIC (E. coli BL21(DE3); colony pUC118-FPB1-BL21(DE3) (feces insert 1 selected against polymyxin B)): 4 mg/L
MIC (E. coli BL21(DE3); colony pUC118-FPB2-BL21(DE3) (feces insert 2 selected against polymyxin B)): 2 mg/L
MIC (E. coli BL21(DE3); colony pUC118-FSA1-BL21(DE3) (feces insert 1 selected against cathelicidin-DM)): 2 mg/L
MIC (E. coli BL21(DE3); colony pUC118-FSA2-BL21(DE3) (feces insert 2 selected against cathelicidin-DM)): 2 mg/L
MIC (E. coli BL21(DE3); colony pUC118-SCST1-BL21(DE3) (soil insert 1 selected against colistin)): 2 mg/L
MIC (E. coli BL21(DE3); colony pUC118-SCST2-BL21(DE3) (soil insert 2 selected against colistin)): 2 mg/L
MIC (E. coli BL21(DE3); colony pUC118-SGQ1-BL21(DE3) (soil insert 1 selected against melittin)): 1 mg/L
MIC (E. coli BL21(DE3); colony pUC118-SGQ2-BL21(DE3) (soil insert 2 selected against melittin)): 1 mg/L
MIC (E. coli BL21(DE3); colony pUC118-SIB1-BL21(DE3) (soil insert 1 selected against iseganan)): 1 mg/L
MIC (E. coli BL21(DE3); colony pUC118-SIB2-BL21(DE3) (soil insert 2 selected against iseganan)): 1 mg/L
MIC (E. coli BL21(DE3); colony pUC118-SPB1-BL21(DE3) (soil insert 1 selected against polymyxin B)): 1 mg/L
MIC (E. coli BL21(DE3); colony pUC118-SPB2-BL21(DE3) (soil insert 2 selected against polymyxin B)): 2 mg/L
MIC (E. coli BL21(DE3); colony pUC118-SSA1-BL21(DE3) (soil insert 1 selected against cathelicidin-DM)): 2 mg/L
MIC (E. coli BL21(DE3); colony pUC118-SSA2-BL21(DE3) (soil insert 2 selected against cathelicidin-DM)): 2 mg/L
